Measured values: article PMC10810651, “Discovery of novel and potent CDK8 inhibitors for the treatment of acute myeloid leukaemia” (Journal of Enzyme Inhibition and Medicinal Chemistry, 2024)
Read-outs that look alike come from different tables or passages of the source.

Key:
CDK8 = CDK8 (Homo sapiens, UniProt P49336); experiment: CDK8 enzyme activity assay (ADP-Glo Kinase Assay); assay type: biochemical; settings: means ± SD; for inhibition at 0.2 µM: CDK8, 200 nM, two experiments, read-out: Inhibition rate @ 200 nM (%); for IC50: three experiments
Experimental: Some of them with high inhibition rates were further measured for their IC50 values. Compound SEL-120 34 A was selected as a positive control. [table] [table] page 14: CO2 atmosphere incubator for 24 h. Then, medium with compound at the concentrations of 100, 20, 4, 0.8, 0.016 μM was added into each well for another 48 h and incubated with CCK-8 (10 μL) for 2 h at 37 °C. The absorbance value at 450 nm was measured by the microplate reader (PerkinElmer Envision). 1.4 Kinase Assay The kinase inhibition was detected by ADP-Glo™ Kinase Assay (Promega) using a black 384-well plate. The active CDK8 kinase was diluted in mixture (5 ng enzyme, 0.5 μg substrate, 50 μM DTT, 1 μL reaction buffer and added ddH2O to 3 μL each well) and the final ATP concentrations of was 50 μM. After incubation at room temperature, ADP-Glo™ solution and kinase detection reagent was added. The data was collected by the microplate reader. 1.5 Cellular thermal shift assay HCT-116 cells were cultured in cell culture dishes and treated with 5 μM compound 12 for 4 h. HCT-116 cells were collected, washed by PBS and cell suspensions were divided into 12 PCR tubes equally. Then,11 tubes were heated at 37, […] After that, cells were broken by ultr asonic treatment and centrifuged at 12000 rpm for 20 min. The supernatant was analyzed by western blot. 1.6 Biotin-pulldown assay After co-treated with 2 μM biotinylated compound and compound 12 for 12 h, HCT-116 cells were lysed with NP-40 containing PMSF and centrifuged at 14000 r for 30 min at 4 °C. Then, 40 μL supernatant was used as the input by adding 10 μL 5×SDS loading buffer, and the remains were mixed with Streptavidin Agarose (Novex, Carlsbad, CA, USA). After 6 h incuba tion at 4 °C, the beads were washed three times using lysis buffer and resuspended in 2× SDS loading buffer. HEK -293T cells overexpressed flag -tagged CDK8 were treated using above method. The samples were analyzed by western blot.

[1] = Caco-2 permeability determination; assay type: in vitro ADME; settings: human; for Papp A→B: Caco-2, A→B; for Papp B→A: Caco-2, B→A
HT-29 = experiment: Antiproliferative CCK-8 assay, HT-29; assay type: cell-based; settings: Homo sapiens; HT-29, CCK-8 assay, means ± SD; read-out: GC50 (the source's name)
Excerpt: (§1) Compounds12, 13 and 30 were selected for further cell activity assessments based on the enzymatic activity assessment results. molm-13 and MV4-11(acute myeloid lineage leukaemia cells), MGC-803 (gastric cancer cell), MDA-MB-231(breast cancer cell), A375 (melanoma cell), A549 (lung cancer cell), HCT-116, SW-480 and HT-29 (colorectal cancer cells) were selected to evaluate antitumor activity in vitro, GES-1 (gastric mucosal epithelial cell) was selected to evaluate toxicity in vitro.
(§2) CO2 atmosphere incubator for 24 h. Then, medium with compound at the concentrations of 100, 20, 4, 0.8, 0.016 μM was added into each well for another 48 h and incubated with CCK-8 (10 μL) for 2 h at 37 °C. The absorbance value at 450 nm was measured by the microplate reader (PerkinElmer Envision). […]

MDA-MB-231 = experiment: Antiproliferative CCK-8 assay, MDA-MB-231; assay type: cell-based; settings: Homo sapiens; MDA-MB-231, CCK-8 assay, means ± SD; read-out: GC50 (the source's name)
Excerpt: as §1, §2

HCT-116 = experiment: Antiproliferative CCK-8 assay, HCT-116; assay type: cell-based; settings: Homo sapiens; HCT-116, CCK-8 assay, means ± SD; read-out: GC50 (the source's name)
Excerpt: as §1, §2

GES-1 = experiment: In vitro toxicity CCK-8 assay, GES-1; assay type: cell-based; settings: Homo sapiens, GES1, GES-1 gastric mucosal epithelial cell, read-out: GC50 (the source's name)
Excerpt: as §1, §2

SW480 = experiment: Antiproliferative CCK-8 assay, SW480; assay type: cell-based; settings: Homo sapiens; SW480, CCK-8 assay, means ± SD; read-out: GC50 (the source's name)
Excerpt: as §1, §2

A375 = experiment: Antiproliferative CCK-8 assay, A375; assay type: cell-based; settings: Homo sapiens, A-375; A375, CCK-8 assay, means ± SD; read-out: GC50 (the source's name)
Excerpt: as §1, §2

MV4-11 = experiment: Antiproliferative CCK-8 assay, MV4-11; assay type: cell-based; settings: Homo sapiens; MV4-11, CCK-8 assay, means ± SD; read-out: GC50 (the source's name)
Excerpt: as §1, §2

A549 = experiment: Antiproliferative CCK-8 assay, A549; assay type: cell-based; settings: Homo sapiens; A549, CCK-8 assay, means ± SD; read-out: GC50 (the source's name)
Excerpt: as §1, §2

molm-13 = experiment: Antiproliferative CCK-8 assay, molm-13; assay type: cell-based; settings: Homo sapiens; molm-13, CCK-8 assay, means ± SD; read-out: GC50 (the source's name)
Excerpt: as §1, §2

MGC-803 = experiment: Antiproliferative CCK-8 assay, MGC-803; assay type: cell-based; settings: Homo sapiens; MGC-803, CCK-8 assay, means ± SD; read-out: GC50 (the source's name)
Excerpt: as §1, §2

[2] = Caco-2, Caco-2, B→A, read-out: Recovery B→A
[3] = Caco-2, Caco-2, A→B, read-out: Recovery A→B

Chain of CDK8 (P49336 whole entry): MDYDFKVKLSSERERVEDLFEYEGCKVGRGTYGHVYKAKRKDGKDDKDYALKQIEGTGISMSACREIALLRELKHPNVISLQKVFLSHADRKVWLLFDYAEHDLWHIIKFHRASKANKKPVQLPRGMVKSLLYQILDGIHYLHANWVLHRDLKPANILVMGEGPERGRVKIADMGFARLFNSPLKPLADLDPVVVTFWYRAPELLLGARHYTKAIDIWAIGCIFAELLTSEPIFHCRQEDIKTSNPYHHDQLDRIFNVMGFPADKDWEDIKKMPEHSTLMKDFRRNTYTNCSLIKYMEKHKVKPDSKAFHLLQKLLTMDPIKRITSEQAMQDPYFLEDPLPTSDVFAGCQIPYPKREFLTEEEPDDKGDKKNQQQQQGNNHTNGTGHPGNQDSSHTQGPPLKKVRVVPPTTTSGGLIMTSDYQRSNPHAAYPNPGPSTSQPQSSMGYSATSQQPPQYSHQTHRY
Chain of CDK8 (P24863 whole entry partner): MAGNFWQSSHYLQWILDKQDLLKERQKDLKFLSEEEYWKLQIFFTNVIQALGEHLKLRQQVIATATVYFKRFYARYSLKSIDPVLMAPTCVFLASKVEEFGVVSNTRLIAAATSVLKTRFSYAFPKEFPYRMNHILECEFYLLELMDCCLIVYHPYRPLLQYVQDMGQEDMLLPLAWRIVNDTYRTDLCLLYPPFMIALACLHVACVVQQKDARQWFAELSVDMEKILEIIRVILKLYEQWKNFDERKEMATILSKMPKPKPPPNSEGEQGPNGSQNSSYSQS

Row | Compound | inhibition at 0.2 µM (CDK8) [%] | IC50 (CDK8) [µM] | also measured
1 | NC(=O)c1cccc(-c2cnc3[nH]cc(-c4ccc(C(F)(F)F)cc4)c3c2)c1 [Compound 39] | 22.3 ± 3.7 | – | –
2 | NC(=O)c1cccc(-c2cnc3[nH]cc(-c4cnn(C(F)F)c4)c3c2)c1 [Compound 18] | 32.5 ± 4.9 | – | –
3 | Cn1cc(-c2c[nH]c3ncc(-c4cccc(C(N)=O)c4)cc23)cn1 [Compound 16] | 29.5 ± 2.3 | – | –
4 | NC(=O)c1cccc(-c2ccc3occc3c2)c1 [Compound 9] | 60.4 ± 4.3 | 0.19 ± 0.0049 | –
5 | NC(=O)c1cccc(-c2cnc3[nH]cc(-c4ccccc4C(F)(F)F)c3c2)c1 [Compound 27] | 15.9 ± 5.2 | – | –
6 | NC(=O)c1cccc(-c2cnc3[nH]cc(-c4cccc(F)c4)c3c2)c1 [Compound 29] | 23.1 ± 2.5 | – | –
7 | NC(=O)c1cccc(-c2cnc3[nH]cc(-c4ccccc4OC(F)(F)F)c3c2)c1 [Compound 28] | 16.9 ± 2.2 | – | –
8 | CC(C)(C)NCC(O)COc1cccc2c1CC(O)C(O)C2 (centres unmarked) [Nadolol] | – | – | recovery [1, 2]: 111%; Papp A→B [1]: 0.2 ×10⁻⁶ cm/s; Papp B→A [1]: 0.5 ×10⁻⁶ cm/s
9 | NC(=O)c1cccc(-c2ccc(N)nc2)c1 [Compound 3] | 50.8 ± 2.3 | 0.177 ± 0.0072 | –
10 | COc1ccc(-c2c[nH]c3ncc(-c4cccc(C(N)=O)c4)cc23)cc1 [Compound 38] | 26.4 ± 1.6 | – | –
11 | NC(=O)c1cccc(-c2cnc3[nH]cc(-c4ccccc4F)c3c2)c1 [Compound 20] | 58.7 ± 3.3 | 0.161 ± 0.0031 | –
12 | C[C@H]1O[C@@H](O[C@H]2[C@@H](O)C[C@H](O[C@H]3[C@@H](O)C[C@H](O[C@H]4CC[C@@]5(C)[C@H](CC[C@@H]6[C@@H]5C[C@@H](O)[C@]5(C)[C@@H](C7=CC(=O)OC7)CC[C@]65O)C4)O[C@@H]3C)O[C@@H]2C)C[C@H](O)[C@@H]1O [Digoxin] | – | – | efflux ratio ([1]; Caco-2): 6.2; recovery [1, 3]: 92.5%; recovery [1, 2]: 99.2%; Papp A→B [1]: 0.9 ×10⁻⁶ cm/s; Papp B→A [1]: 5.6 ×10⁻⁶ cm/s
13 | NC(=O)c1cccc(-c2ccc3sccc3c2)c1 [Compound 10] | 38.3 ± 2.2 | – | –
14 | NC(=O)c1cccc(-c2cnc3[nH]cc(-c4ccc(F)cc4)c3c2)c1 [Compound 35] | 55.8 ± 4.6 | – | –
15 | CCOC(C)n1cc(-c2c[nH]c3ncc(-c4cccc(C(N)=O)c4)cc23)cn1 (centres unmarked) [Compound 17] | 46.5 ± 1.8 | – | –
16 | NC(=O)c1cccc(-c2cncc3ccccc23)c1 [Compound 5] | 55.7 ± 3.8 | 0.186 ± 0.0045 | –
17 | CC(C)NCC(O)COc1cccc2ccccc12 (centres unmarked) [Propranolol] | – | – | recovery [1, 3]: 99.9%; recovery [1, 2]: 107%; Papp A→B [1]: 40.2 ×10⁻⁶ cm/s; Papp B→A [1]: 34.1 ×10⁻⁶ cm/s
18 | NC(=O)c1cccc(-c2cnc3[nH]cc(-c4ccccc4O)c3c2)c1 [Compound 22] | 36.2 ± 2.7 | – | –
19 | COc1ccccc1-c1c[nH]c2ncc(-c3cccc(C(N)=O)c3)cc12 [Compound 25] | 62 ± 4.6 | 0.136 ± 0.0053 | –
20 | NC(=O)c1cccc(-c2cnc(N)c3ccccc23)c1 [Compound 6] | 75.8 ± 5.9 | 0.0645 ± 0.0038 | –
21 | NC(=O)c1cccc(-c2cnc3[nH]ncc3c2)c1 [Compound 2] | 35.2 ± 2.8 | – | –
22 | Cc1c(Br)c(Br)c2c3c1nc(N1CCNCC1)n3CCC2 [SEL-120-34A, reference compound] | 82.5 ± 5.8 | 0.0372 ± 0.0025 | IC50 (HT-29): 33.8 ± 1.4 µM; IC50 (MDA-MB-231): 9.6 ± 0.81 µM; IC50 (HCT-116): 11.3 ± 1.9 µM; IC50 (GES-1): 55.3 ± 3.2 µM; IC50 (SW480): 17.7 ± 2.1 µM; IC50 (A375): 5.9 ± 1.43 µM; IC50 (MV4-11): 0.007 ± 0.001 µM; IC50 (A549): 12.1 ± 0.37 µM; IC50 (molm-13): 0.02 ± 0.01 µM; IC50 (MGC-803): 16.3 ± 1.86 µM

Row | Compound | inhibition at 0.2 µM (CDK8) [%] | IC50 (CDK8) [µM] | also measured
23 | NC(=O)c1cccc(-c2cnc3[nH]cc(-c4cccc(OC(F)(F)F)c4)c3c2)c1 [Compound 34] | 23.4 ± 3.3 | – | –
24 | NC(=O)c1cccc(-c2cnc3[nH]cc(-c4cccs4)c3c2)c1 [Compound 14] | 52.5 ± 2.8 | 0.186 ± 0.0046 | –
25 | NC(=O)c1cccc(-c2cnc3[nH]ccc3n2)c1 [Compound 1] | 63 ± 4.5 | 0.106 ± 0.0046 | –
26 | NC(=O)c1cccc(-c2cnc3[nH]cc(-c4ccc(Cl)cc4)c3c2)c1 [Compound 36] | 61.6 ± 5.4 | 0.128 ± 0.0038 | –
27 | NC(=O)c1cccc(-c2cnc(N)c(Cl)c2)c1 [Compound 4] | 45.6 ± 4.2 | – | –
28 | NC(=O)c1cccc(-c2cnc3[nH]cc(-c4cccc(O)c4)c3c2)c1 [Compound 31] | 30.5 ± 2.3 | – | –
29 | NC(=O)c1cccc(-c2cnc3[nH]cc(Cl)c3c2)c1 [Compound 11] | 51.8 ± 4.3 | – | –
30 | CCc1ccccc1-c1c[nH]c2ncc(-c3cccc(C(N)=O)c3)cc12 [Compound 24] | 24.6 ± 2.4 | – | –
31 | NC(=O)c1cccc(-c2cnc3[nH]cc(-c4ccc(O)cc4)c3c2)c1 [Compound 37] | 28.3 ± 3.1 | – | –
32 | NC(=O)c1cccc(-c2cnc3[nH]cc(-c4ccccc4Cl)c3c2)c1 [Compound 21] | 23.6 ± 2.6 | – | –
33 | Cc1ccccc1-c1c[nH]c2ncc(-c3cccc(C(N)=O)c3)cc12 [Compound 23] | 51.6 ± 2.6 | 0.193 ± 0.0066 | –
34 | CC(C)c1ccccc1-c1c[nH]c2ncc(-c3cccc(C(N)=O)c3)cc12 [Compound 26] | 33.1 ± 4.2 | – | –
35 | NC(=O)c1cccc(-c2cnc3[nH]cc(-c4ccccc4)c3c2)c1 [Compound 19] | 57.4 ± 1.4 | 0.158 ± 0.0043 | –
36 | NC(=O)c1cccc(-c2cnc3[nH]cc(-c4cccc(Cl)c4)c3c2)c1 [Compound 30] | 65.5 ± 3.8 | 0.0867 ± 0.0065 | IC50 (HT-29): > 50 µM; IC50 (MDA-MB-231): > 50 µM; IC50 (HCT-116): > 50 µM; IC50 (GES-1): > 100 µM; IC50 (SW480): > 50 µM; IC50 (A375): > 50 µM; IC50 (MV4-11): > 50 µM; IC50 (A549): > 50 µM; IC50 (molm-13): > 50 µM; IC50 (MGC-803): > 50 µM
37 | Cn1ccc2cc(-c3cccc(C(N)=O)c3)ccc21 [Compound 8] | 51.7 ± 5.4 | 0.255 ± 0.0045 | –
38 | NC(=O)c1cccc(-c2cnc3[nH]cc(-c4ccc(OC(F)(F)F)cc4)c3c2)c1 [Compound 40] | 46.3 ± 1.9 | – | –
39 | NC(=O)c1cccc(-c2cnc3[nH]cc(-c4cccc(C(F)(F)F)c4)c3c2)c1 [Compound 33] | 34.6 ± 4.1 | – | –
40 | NC(=O)c1cccc(-c2cnc3[nH]cc(-c4ccsc4)c3c2)c1 [Compound 13] | 70.4 ± 3.6 | 0.0657 ± 0.0031 | IC50 (HT-29): 9.31 ± 1.67 µM; IC50 (MDA-MB-231): 31.5 ± 1.27 µM; IC50 (HCT-116): 2.48 ± 0.99 µM; IC50 (GES-1): 24.2 ± 3.62 µM; IC50 (SW480): 5.45 ± 2.82 µM; IC50 (A375): 0.95 ± 0.52 µM; IC50 (MV4-11): 0.36 ± 0.12 µM; IC50 (A549): 21.8 ± 1.66 µM; IC50 (molm-13): 0.16 ± 0.02 µM; IC50 (MGC-803): 9.19 ± 2.42 µM
41 | NC(=O)c1cccc(-c2cnc3[nH]cc(-c4cn[nH]c4)c3c2)c1 [Compound 15] | 49.1 ± 3.4 | – | –
42 | COc1cccc(-c2c[nH]c3ncc(-c4cccc(C(N)=O)c4)cc23)c1 [Compound 32] | 44 ± 3.8 | – | –
43 | NC(=O)c1cccc(-c2ccc3[nH]ccc3c2)c1 [Compound 7] | 59.1 ± 2.1 | 0.212 ± 0.0061 | –
